Assay results taken from PubChem BioAssay (NCI).
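Following 48 hours of exposure in 96-well plates, responses at five concentrations were used to interpolate endpoints linearly. TGI marks complete inhibition of growth.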

Experiments:
Assay in all cases: NCI anticancer screen, dose series, 48 h
[1] = tested on: SF-268 CNS
[2] = tested on: RXF 393 renal
[3] = tested on: HOP-92 NSCLC
[4] = tested on: SR leukemia
[5] = tested on: EKVX NSCLC
[6] = tested on: ACHN renal
[7] = tested on: 786-0 renal
[8] = tested on: HL-60(TB) leukemia
[9] = tested on: HS 578T breast
[10] = tested on: U251 CNS
[11] = tested on: DU-145 prostate
[12] = tested on: NCI-H522 lung
[13] = tested on: PC-3 prostate
[14] = tested on: HCT-15 colon
[15] = tested on: LOX IMVI melanoma
[16] = tested on: SNB-19 CNS
[17] = tested on: SW-620 colon
[18] = tested on: KM12 colon
[19] = tested on: M14 melanoma
[20] = tested on: UACC-257 melanoma
[21] = tested on: T-47D breast
[22] = tested on: UO-31 renal
[23] = tested on: HCC-2998 colon
[24] = tested on: COLO 205 colon
[25] = tested on: SF-539 CNS
[26] = tested on: MCF7 breast
[27] = tested on: RPMI-8226 leukemia
[28] = tested on: SNB-75 CNS
[29] = tested on: A498 renal
[30] = tested on: OVCAR-3 ovarian
[31] = tested on: MALME-3M melanoma
[32] = tested on: HOP-62 NSCLC
[33] = tested on: HCT-116 colon
[34] = tested on: NCI-H23 lung
[35] = tested on: UACC-62 melanoma
[36] = tested on: IGROV1 ovarian
[37] = tested on: NCI-H460 lung
[38] = tested on: SF-295 CNS
[39] = tested on: MDA-MB-435
[40] = tested on: TK-10 renal
[41] = tested on: MDA-N
[42] = tested on: CAKI-1 renal
[43] = tested on: K-562 leukemia
[44] = tested on: HT29 colon
[45] = tested on: SK-MEL-5 melanoma
[46] = tested on: SK-MEL-28 melanoma
[47] = tested on: NCI/ADR-RES ovarian
[48] = tested on: CCRF-CEM leukemia
[49] = tested on: MOLT-4 leukemia
[50] = tested on: OVCAR-8 ovarian
[51] = tested on: SK-MEL-2 melanoma
[52] = tested on: OVCAR-5 ovarian
[53] = tested on: SK-OV-3 ovarian
[54] = tested on: OVCAR-4 ovarian
[55] = tested on: A549 NSCLC
[56] = tested on: SN12C renal
[57] = tested on: MDA-MB-231 breast
[58] = tested on: NCI-H226 lung

Measured: TGI

COc1ccc(C(=O)c2nc3ccccc3nc2N2CCN(c3ccccc3)CC2)cc1OC
not listed: [56] | [57] | [58]
> 100 µM: all other assays above

CN(C)c1ccc(C2CC(=O)CC(c3ccc(N(C)C)cc3)C23C(=O)NC(=S)NC3=O)cc1 (stereo not given)
31.2 µM: [28]
45.6 µM: [32]
not listed: [12] | [36] | [50]
> 100 µM: all other assays above
